Experimental data reported in ChEMBL document CHEMBL1909569 (Bioorg Med Chem Lett, 2011).
Values after ≈ are worked out from the molar mass of the structure shown.

What was measured:
[1] = tested on: Mycobacterium tuberculosis; assay: Antimicrobial activity against replicating Mycobacterium tuberculosis after 8 days by micro plate alamar blue assay; format: functional; settings: 192 h
[2] = tested on: Mycobacterium tuberculosis; assay: Antimicrobial activity against non-replicating Mycobacterium tuberculosis after 11 days by luminescence based low oxygen recovery assay; format: functional; settings: 264 h
[3] = target: T1, DNA-directed RNA polymerase subunit beta (Mycobacterium tuberculosis, UniProt P9WGY9); assay: (§1) Inhibition of wild type Mycobacterium tuberculosis RNA polymerase after 10 mins using ribo green staining by rolling circle transcription assay
T1 sequence (P9WGY9 whole entry): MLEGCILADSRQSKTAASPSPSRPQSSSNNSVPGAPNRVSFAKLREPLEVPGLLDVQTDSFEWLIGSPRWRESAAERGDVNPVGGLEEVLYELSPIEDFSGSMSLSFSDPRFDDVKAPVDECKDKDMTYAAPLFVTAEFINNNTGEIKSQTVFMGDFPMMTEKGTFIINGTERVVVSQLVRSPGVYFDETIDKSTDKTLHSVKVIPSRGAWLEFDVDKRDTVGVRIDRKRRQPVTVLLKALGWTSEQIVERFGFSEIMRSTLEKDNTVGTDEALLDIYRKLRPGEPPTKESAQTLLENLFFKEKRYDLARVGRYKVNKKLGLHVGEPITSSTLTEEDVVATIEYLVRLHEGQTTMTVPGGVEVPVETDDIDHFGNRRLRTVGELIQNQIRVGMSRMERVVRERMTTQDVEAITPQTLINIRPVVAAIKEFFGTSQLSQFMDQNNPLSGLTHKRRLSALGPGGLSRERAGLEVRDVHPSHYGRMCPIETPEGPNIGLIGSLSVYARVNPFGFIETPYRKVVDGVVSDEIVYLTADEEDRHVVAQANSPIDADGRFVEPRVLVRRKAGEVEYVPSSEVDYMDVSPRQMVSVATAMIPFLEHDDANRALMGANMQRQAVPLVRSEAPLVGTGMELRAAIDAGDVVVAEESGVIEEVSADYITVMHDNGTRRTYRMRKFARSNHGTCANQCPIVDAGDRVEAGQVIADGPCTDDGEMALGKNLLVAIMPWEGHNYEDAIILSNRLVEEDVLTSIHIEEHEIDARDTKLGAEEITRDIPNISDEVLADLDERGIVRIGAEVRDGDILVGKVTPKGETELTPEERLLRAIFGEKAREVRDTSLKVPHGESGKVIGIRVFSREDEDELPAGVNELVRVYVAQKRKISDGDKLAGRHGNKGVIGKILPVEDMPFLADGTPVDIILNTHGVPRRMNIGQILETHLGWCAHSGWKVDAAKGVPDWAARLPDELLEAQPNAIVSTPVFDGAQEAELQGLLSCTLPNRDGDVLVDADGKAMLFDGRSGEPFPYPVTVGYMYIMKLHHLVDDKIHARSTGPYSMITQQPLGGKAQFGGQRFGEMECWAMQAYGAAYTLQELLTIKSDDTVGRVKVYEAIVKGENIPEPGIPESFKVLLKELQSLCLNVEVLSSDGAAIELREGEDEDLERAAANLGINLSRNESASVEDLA

[4] = target: T2, DNA-directed RNA polymerase subunit beta (Mycobacterium tuberculosis) (UniProt P9WGY9); assay: as §1; parameters: unit not given here
T2 sequence (whole entry): T1 sequence (P9WGY9 whole entry)

Escherichia coli [5] = assay: Antimicrobial activity against wild type Escherichia coli TG2 after 16 to 20 hrs; format: functional
Escherichia coli [6] = assay: Antimicrobial activity against wild type Escherichia coli DH5[alpha] after 16 to 20 hrs; format: functional
Escherichia coli [7] = assay: Antimicrobial activity against Escherichia coli EC2880 mutant after 16 to 20 hrs; format: functional

Structure (SMILES)	MIC90 [1]	MIC90 [2]	IC50 [3]	logIC50 [4]	MIC90 (Escherichia coli [5])	MIC90 (Escherichia coli [6])	MIC90 (Escherichia coli [7])
C/C=C/Nc1c(C)c2c3c4c1C(=O)C(=C(/C=N/N1CCN(C)CC1)C4=O)NC(=O)/C(C)=C\C=C\[C@H](C)[C@H](O)[C@@H](C)[C@@H](O)[C@@H](C)[C@H](OC(C)=O)[C@H](C)[C@@H](OC)/C=C/O[C@@](C)(O2)C3=O	> 4.7 µM	> 18.6 µM					
CO[C@H]1/C=C/O[C@@]2(C)Oc3c(c4c5c(nn(CCO)c5c3C)C(=CC4=O)NC(=O)/C(C)=C\C=C\[C@H](C)[C@H](O)[C@@H](C)[C@@H](O)[C@@H](C)[C@H](OC(C)=O)[C@@H]1C)C2=O	> 5.4 µM	> 21.7 µM					
CO[C@H]1/C=C/O[C@@]2(C)Oc3c(C)c(NCCO)c4c(c3C2=O)C(=O)C(/C=N/N2CCN(C)CC2)=C(NC(=O)/C(C)=C\C=C\[C@H](C)[C@H](O)[C@@H](C)[C@@H](O)[C@@H](C)[C@H](OC(C)=O)[C@@H]1C)C4=O	> 4.6 µM	> 18.5 µM					
CO[C@H]1/C=C/O[C@@]2(C)Oc3c(C)c(N)c4c(c3C2=O)C(=O)C=C(NC(=O)/C(C)=C\C=C\[C@H](C)[C@H](O)[C@@H](C)[C@@H](O)[C@@H](C)[C@H](OC(C)=O)[C@@H]1C)C4=O	1.41 µM (≈ 0.98 µg/mL)	22.2 µM (≈ 15.4 µg/mL)	4.4 µM	0.644	> 100 µM	> 100 µM	12.5 µM (≈ 8.68 µg/mL)
CCNc1c(C)c2c3c4c1C(=O)C(=CC4=O)NC(=O)/C(C)=C\C=C\[C@H](C)[C@H](O)[C@@H](C)[C@@H](O)[C@@H](C)[C@H](OC(C)=O)[C@H](C)[C@@H](OC)/C=C/O[C@@](C)(O2)C3=O	5.5 µM (≈ 3.98 µg/mL)	21.4 µM (≈ 15.5 µg/mL)					
CO[C@H]1/C=C/O[C@@]2(C)Oc3c(C)c(NC4CCCCCC4)c4c(c3C2=O)C(=O)C(/C=N/N2CCN(C)CC2)=C(NC(=O)/C(C)=C\C=C\[C@H](C)[C@H](O)[C@@H](C)[C@@H](O)[C@@H](C)[C@H](OC(C)=O)[C@@H]1C)C4=O	3.9 µM (≈ 3.57 µg/mL)	13.7 µM (≈ 12.6 µg/mL)					
CO[C@H]1/C=C/O[C@@]2(C)Oc3c(C)c(NCc4ccccc4)c4c(O)c(c(/C=N/N5CCN(C)CC5)c(O)c4c3C2=O)NC(=O)/C(C)=C\C=C\[C@H](C)[C@H](O)[C@@H](C)[C@@H](O)[C@@H](C)[C@H](OC(C)=O)[C@@H]1C	> 4.4 µM	> 17.5 µM					
CO[C@H]1/C=C/O[C@@]2(C)Oc3c(C)c(N(C)C)c4c(c3C2=O)C(=O)C=C(NC(=O)/C(C)=C\C=C\[C@H](C)[C@H](O)[C@@H](C)[C@@H](O)[C@@H](C)[C@H](OC(C)=O)[C@@H]1C)C4=O	1.8 µM (≈ 1.3 µg/mL)	5.4 µM (≈ 3.9 µg/mL)	0.503 µM	-0.298	> 100 µM	> 100 µM	12.5 µM (≈ 9.04 µg/mL)
CNc1c(C)c2c3c4c1C(=O)C(=CC4=O)NC(=O)/C(C)=C\C=C\[C@H](C)[C@H](O)[C@@H](C)[C@@H](O)[C@@H](C)[C@H](OC(C)=O)[C@H](C)[C@@H](OC)/C=C/O[C@@](C)(O2)C3=O	> 5.6 µM	20.6 µM (≈ 14.6 µg/mL)					
CO[C@H]1/C=C/O[C@@]2(C)Oc3c(C)c(NC4CCCCCC4)c4c(O)c(c(/C=N/N5CCN(C)CC5)c(O)c4c3C2=O)NC(=O)/C(C)=C\C=C\[C@H](C)[C@H](O)[C@@H](C)[C@@H](O)[C@@H](C)[C@H](OC(C)=O)[C@@H]1C	3.8 µM (≈ 3.49 µg/mL)	> 17.4 µM					
CO[C@H]1/C=C/O[C@@]2(C)Oc3c(C)c(NCCO)c4c(c3C2=O)C(=O)C=C(NC(=O)/C(C)=C\C=C\[C@H](C)[C@H](O)[C@@H](C)[C@@H](O)[C@@H](C)[C@H](OC(C)=O)[C@@H]1C)C4=O	5.32 µM (≈ 3.93 µg/mL)	> 21.7 µM					
CO[C@H]1/C=C/O[C@@]2(C)Oc3c(C)c(O)c4c(O)c(c(/C=N/N5CCN(C)CC5)c(O)c4c3C2=O)NC(=O)/C(C)=C\C=C\[C@H](C)[C@H](O)[C@@H](C)[C@@H](O)[C@@H](C)[C@H](OC(C)=O)[C@@H]1C [RIFAMPIN]	0.13 µM (≈ 0.107 µg/mL)	1.9 µM (≈ 1.56 µg/mL)			12.5 µM (≈ 10.3 µg/mL)	12.5 µM (≈ 10.3 µg/mL)	0.1 µM (≈ 0.0823 µg/mL)
NNC(=O)c1ccncc1 [ISONIAZID]	0.39 µM (≈ 0.0535 µg/mL)	> 128 µM					
